These results are taken from patent US10464904B2, “Dextrorphan-derivatives with suppressed central nervous activity” (Heinrich-Heine-Universität Düsseldorf, priority 2015, dated 2019).

A short description of this series: Rotarod test, time on rod. Particulars: mice, 30 minutes after i.p. injection. Format: in vivo, C57BL/6 mice. As to the method: FIG. 6: Time that C57BL/6 mice stayed on rod 30 minutes after i.p. injection of PBS without (control) or with either 50 μg g^−1 body weight DXO or 100 μg g^−1 body weight compound (4); n=5 male mice each. Significance determined by Student's t-test. *P<0.05. All values are mean±SD.

Regarding `CN1CC[C@@]23CCCC[C@@H]2[C@@H]1Cc1ccc(O)cc13` [dextrorphan, (+)-17-methyl-9α,13α,14α-morphinan-3-ol], the “coordination deficits in rotarod test” value was “does”.
